Measurements: patent US12558428B2, “Heterobifunctional compounds and their use in treating disease” (Halda Therapeutics OpCo, Inc., priority 2024, dated 2026)
Like-named read-outs stand apart in the source and are kept apart here.

How the values were obtained:
Type in all cases: cell-based
[1] = test system: T-Rex 293 cells lacking increased expression of estrogen receptor alpha protein; assay: Cellular growth inhibition assay, T-Rex 293 cells, (−) doxycycline; details: Table 7-A, T-Rex 293 cells without doxycycline (lacking increased ERα expression), 72 hours, CellTiter-Glo, read-out: (−) Dox GI50
Outline: (§1)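 Growth of a doxycycline-inducible ERα T-Rex 293 clone, induced or not with 3 ng/mL doxycycline, was followed for 72 h with test compound in hormone-depleted medium. CellTiter-Glo luminescence gave GI50.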

[2] = test system: T-Rex 293 cells having increased expression of estrogen receptor alpha protein; assay: Cellular growth inhibition assay, T-Rex 293 cells, (+) doxycycline; details: Table 7-A, T-Rex 293 cells with doxycycline (increased ERα expression), 72 hours, CellTiter-Glo, read-out: (+) Dox GI50
Outline: as §1

[3] = test system: MCF7 cells (ATCC #HTB-22); assay: Cellular growth inhibition assay, MCF7 cells purchased from ATCC; details: Table 8-A, MCF7 cells purchased from ATCC, six days, CellTiter-Glo, read-out: GI50
Description: Exemplary compounds were tested for the ability to inhibit the proliferation of MCF7 cells.
MCF7 cells (ATCC #HTB-22 or ECACC #86012803) were cultured in RPMI 1640 medium supplemented with 10% heat-inactivated fetal bovine serum, 1% pen-strep, and 0.2 U/ml insulin. Cells were seeded in 25 μL of RPMI 1640 medium supplemented with 10% heat-inactivated fetal bovine serum, 1% pen-strep, 0.2 U/ml insulin in poly-D-lysine treated, black clear-bottom 384-well plates at 225 cells/well for MCF7 cells purchased from ECACC or 1,500 cells/well for MCF7 cells purchased from ATCC. Following seeding, plates were spun at 300×g for 30 seconds and cultured at 37° C. with 5% CO2 in a humidified tissue culture incubator.
At 24 hours after seeding, compounds were titrated in 100% DMSO and diluted in RPMI 1640 medium supplemented with 10% heat-inactivate fetal bovine serum, 1% pen-strep, and 0.2 U/ml insulin. A 25 μL aliquot of the compound/media mixture was added to cells, bringing the total volume in each well to 50 μL. An equal volume of DMSO without compound was used as a negative control. After treatment, plates were spun at 300×g for 30 seconds, then cultured at 37° C. with 5% CO2 for six days in a humidified tissue culture incubator.
On Day 6 of treatment, cell viability was quantified with CellTiter-Glo 2.0 reagent (Promega). Plates were equilibrated to room temperature for 30 minutes, then 25 μL of CellTiter-Glo 2.0 reagent was added to cells, bringing the total volume in each well to 75 μL. After reagent was added, plates were mixed on a shaker for two minutes at 500 rpm and then incubated at room temperature for 10 minutes. Following incubation, plates were spun at 3,000×g for 30 seconds, sealed with an optical adhesive cover, and luminescence readings were measured with an EnVision Plate Reader.
Data was normalized to 0 luminescence for baseline. A four-parameter, non-linear regression curve fit was applied to dose-response data in GraphPad Prism data analysis software to determine the half maximal growth inhibitory concentration (GI50) for each compound.

Row | GI50 ([3]; Homo sapiens, MCF7, 144 h) | GI50 [3] | SMILES | GI50 ([1]; T-REx-293, 72 h) | GI50 ([2]; T-REx-293, 72 h) | GI50 [1] | GI50 [2]
1 | > 2500 nM |  | Cc1sc2c(c1C)C(c1ccc(CC3CC4(CCN(c5ccc([C@@H]6c7ccc(O)cc7CC[C@@H]6c6ccccc6)cc5)CC4)C3)cc1)=N[C@H](Cc1ncco1)c1nnc(C)n1-2 [III-4, (5R,6S)-6-phenyl-5-(4-(2-(4-((R)-2,3,9-trimethyl-6-(oxazol-2-ylmethyl)-6H-thieno[3,2-f][1,2,4]triazolo[4,3-a][1,4]diazepin-4-yl)benzyl)-7-azaspiro[3.5]nonan-7-yl)phenyl)-5,6,7,8-tetrahydronaphthalen-2-ol] | > 2500 nM | 500 to 2500 nM |  | 
2 | < 50 nM |  | Cc1sc2c(c1C)C(c1ccc(NCCN3CCN(CCOc4ccc([C@@H]5c6ccc(O)cc6CC[C@@H]5c5ccccc5)cc4)CC3)cc1)=N[C@@H](Cc1ncco1)c1nnc(C)n1-2 [III-103] | 50 to 500 nM | < 50 nM |  | 
3 | < 50 nM |  | Cc1sc2c(c1C)C(c1ccc(N3CCC(O)(CN4CCC(c5ccc([C@@H]6c7ccc(O)cc7CC[C@@H]6c6ccccc6)cc5)CC4)CC3)cc1)=N[C@@H](Cc1ncco1)c1nnc(C)n1-2 [III-140] | 500 to 2500 nM | 50 to 500 nM |  | 
4 | < 50 nM |  | Cc1sc2c(c1C)C(c1ccc(N3CCC(O)(CN4CCN(c5ccc([C@@H]6c7ccc(O)cc7CC[C@@H]6c6c(F)cccc6F)c(F)c5)CC4)CC3)cc1)=N[C@@H](C)c1nnc(C)n1-2 [III-293] | 500 to 2500 nM | < 50 nM |  | 
5 | 50 to 500 nM |  | Cc1sc2c(c1C)C(c1ccc(N3CCC(O)(CC4CCN(c5ccc([C@@H]6c7ccc(O)cc7CC[C@@H]6c6ccccc6)cc5)CC4)CC3)cc1)=N[C@@H](C)c1nnc(C)n1-2 [III-152] | 500 to 2500 nM | < 50 nM |  | 
6 | < 50 nM |  | Cc1sc2c(c1C)C(c1ccc(N3CCC(O)(CN4CCC(c5ccc([C@@H]6c7ccc(O)cc7CC[C@@H]6c6ccccc6)cc5)CC4)CC3)cc1)=N[C@@H](C)c1nnc(C)n1-2 [III-25] | 500 to 2500 nM | < 50 nM |  | 
7 | 50 to 500 nM |  | Cc1sc2c(c1C)C(c1ccc(N3CCC(O)(CC4CCN(c5ccc([C@@H]6c7ccc(O)cc7CC[C@@H]6c6ccccc6)cc5)CC4)CC3)cc1)=N[C@H](Cc1ncco1)c1nnc(C)n1-2 [III-154] | > 2500 nM | > 2500 nM |  | 
8 | 50 to 500 nM |  | Cc1sc2c(c1C)C(c1ccc(C3CN(C[C@H]4CC[C@H](CN5CC(c6ccc(C7=C(c8ccccc8)CCCc8cc(C(=O)O)ccc87)cc6)C5)CC4)C3)cc1)=N[C@@H](C)c1nnc(C)n1-2 [IV-32] | 50 to 500 nM | < 50 nM |  | 
9 | 50 to 500 nM |  | COc1cc(N2CCN(CC3(O)CCN(c4ccc(C5=N[C@@H](C)c6nnc(C)n6-c6sc(C)c(C)c65)cc4)CC3)CC2)ccc1[C@H]1c2ccc(O)cc2CC[C@H]1c1cccc(F)c1 [III-309] | 50 to 500 nM | 50 to 500 nM |  | 
10 | < 50 nM |  | Cc1sc2c(c1C)C(c1ccc(N3CCC(CN4CC5(CCN(c6ccc([C@@H]7c8ccc(O)cc8CC[C@@H]7c7ccccc7)cc6)CC5)C4)CC3)cc1)=N[C@@H](C)c1nnc(C)n1-2 [III-87] | 50 to 500 nM | < 50 nM |  | 
11 | 50 to 500 nM |  | Cc1sc2c(c1C)C(c1ccc(N3CC(CC4(O)CCN(CC5CN(c6ccc([C@H]7c8ccc(O)cc8CC[C@H]7c7ccc(F)cc7)cc6)C5)CC4)C3)cc1)=N[C@@H](C)c1nnc(C)n1-2 [III-238] | 500 to 2500 nM | 50 to 500 nM |  | 
12 | 50 to 500 nM |  | Cc1sc2c(c1C)C(c1ccc(N3CCC(O)(CN4CCN(c5cc(F)c([C@H]6c7ccc(O)cc7CC[C@H]6c6ccccc6)cc5F)CC4)CC3)cc1)=N[C@@H](Cc1ncco1)c1nnc(C)n1-2 [III-300] | 50 to 500 nM | < 50 nM |  | 
13 | < 50 nM |  | Cc1sc2c(c1C)C(c1ccc(C3CN(C(=O)C4CCN(CC5CN(c6ccc([C@@H]7c8ccc(O)cc8CC[C@@H]7c7ccccc7)cc6)C5)CC4)C3)cc1)=N[C@@H](Cc1ncco1)c1nnc(C)n1-2 [III-175] | 50 to 500 nM | < 50 nM |  | 
14 | < 50 nM |  | Cc1sc2c(c1C)C(c1ccc(NC[C@@H]3CN(CCOc4ccc([C@@H]5c6ccc(O)cc6CC[C@@H]5c5ccccc5)cc4)CCO3)cc1)=NC(Cc1ncco1)c1nnc(C)n1-2 (stereo partly drawn) [III-39] | 50 to 500 nM | < 50 nM |  | 
15 | 50 to 500 nM |  | COc1ccc(-c2sc3cc(OC)ccc3c2C(=O)c2ccc(OCCN3CCC(CCOc4ccc(C5=N[C@@H](Cc6ncco6)c6nnc(C)n6-c6sc(C)c(C)c65)cc4)CC3)cc2)cc1 [V-3] | 50 to 500 nM | 50 to 500 nM |  | 
16 | 50 to 500 nM |  | CC1=C(c2c(F)cc(F)cc2F)[C@H](c2ccc(OCC(=O)N3CCCC4(CCN(c5ccc(C6=N[C@@H](C)c7nnc(C)n7-c7sc(C)c(C)c76)cc5)C4)C3)cc2)Oc2ccc(O)cc21 (stereo partly drawn) [V-30] | 50 to 500 nM | 50 to 500 nM |  | 
17 | 50 to 500 nM |  | Cc1sc2c(c1C)C(c1ccc(N3CCC(O)(CN4CCN(c5ccc([C@H]6c7ccc(O)cc7CC[C@H]6c6ccc(F)cc6)c(F)c5)CC4)CC3)cc1)=N[C@@H](C)c1nnc(C)n1-2 [III-249] | 500 to 2500 nM | 50 to 500 nM |  | 
18 | 50 to 500 nM |  | Cc1sc2c(c1C)C(c1ccc(N3CCC(CN4CCN(c5ccc([C@H]6c7ccc(O)cc7CC[C@H]6c6ccccc6)cn5)CC4)CC3)cc1)=N[C@@H](Cc1ncco1)c1nnc(C)n1-2 [III-125] | 50 to 500 nM | < 50 nM |  | 
19 | < 50 nM |  | Cc1sc2c(c1C)C(c1ccc(C3CN(C(=O)C4CCN(c5ccc([C@@H]6c7ccc(O)cc7CC[C@@H]6c6ccccc6)cc5)CC4)C3)cc1)=N[C@@H](Cc1ncco1)c1nnc(C)n1-2 [III-156] | < 50 nM | < 50 nM |  | 
20 | < 50 nM |  | Cc1sc2c(c1C)C(c1ccc(N3CC4(CC(CN5CCN(c6ccc([C@@H]7c8ccc(O)cc8CC[C@@H]7c7ccccc7)cc6)CC5)C4)C3)cc1)=N[C@@H](C)c1nnc(C)n1-2 [III-243] | 500 to 2500 nM | < 50 nM |  | 
21 | < 50 nM |  | Cc1sc2c(c1C)C(c1ccc(N3CCC(O)(CN4CCN(c5ccc([C@@H]6c7ccc(O)cc7CC[C@@H]6c6cc(F)ccc6F)c(F)c5)CC4)CC3)cc1)=N[C@@H](C)c1nnc(C)n1-2 [III-274] | 500 to 2500 nM | < 50 nM |  | 
22 | < 50 nM |  | Cc1sc2c(c1C)C(c1ccc(N3CCC(CN4CCN(c5ccc(C6=C(c7ccc(Cl)cc7Cl)CCCc7cc(C(=O)O)ccc76)cc5)CC4)CC3)cc1)=N[C@@H](Cc1ncco1)c1nnc(C)n1-2 [IV-14] | 500 to 2500 nM | < 50 nM |  | 
23 |  | 50 to 500 nM | CCN(Cc1ccc(CCN2CC[C@@H](OCCOCCOc3ccc(C4=N[C@@H](C)c5nnc(C)n5-c5sc(C)c(C)c54)cc3)C2)cc1)c1cc(OC)ccc1C1CCc2cc(O)ccc2C1 (stereo partly drawn) [I-34b, (S)-6-(2-(ethyl(4-(2-((R)-3-(2-(2-(4-((S)-2,3,6,9-tetramethyl-6H-thieno[3,2-f][1,2,4]triazolo[4,3-a][1,4]diazepin-4-yl)phenoxy)ethoxy)ethoxy)pyrrolidin-1-yl)ethyl)benzyl)amino)-4-methoxyphenyl)-5,6,7,8-tetrahydronaphthalen-2-ol] |  |  | 500 to 2500 nM | < 50 nM
24 | 50 to 500 nM |  | CC1=C(c2c(F)cc(F)cc2F)C(c2ccc(OCCN3CCCN(c4ccc(C5=N[C@@H](C)c6nnc(C)n6-c6sc(C)c(C)c65)cc4)CC3)cc2)Oc2ccc(O)cc21 (stereo partly drawn) [V-6] | 500 to 2500 nM | 50 to 500 nM |  | 
25 | 50 to 500 nM |  | Cc1sc2c(c1C)C(c1ccc(C3CN(CC4(O)CCN(CC5CN(c6ccc(C7=C(c8ccccc8)CCCc8cc(C(=O)O)ccc87)cc6)C5)CC4)C3)cc1)=N[C@@H](C)c1nnc(C)n1-2 [IV-46] | 500 to 2500 nM | < 50 nM |  | 
